The source of these data is patent publication US20230312601A1, “THIAZOLO[5,4-B]PYRIDINE MALT-1 INHIBITORS” (AbbVie Inc., priority 2022, published 2023).

One data set concerns the target human MALT-1 protein (Homo sapiens (Human), UniProt Q9UDY8). Put plainly: MALT-1 Biochemical Assay (Quench-FRET enzyme assay). Particulars: human MALT-1 6 nM, substrate 2 μM, 40 min preincubation. The text has this:
A Quenched Fluorescence Resonance Energy Transfer (Quench-FRET) enzyme assay was used to test the ability of exemplary MALT-1 inhibitors Example 1 to Example 39 to inhibit the cleavage of a MALT1 specific quenched fluorescent substrate of sequence [TAMRA-PEG2-Leu-Val-Ser-Arg-Gly-Ala-Ala-Ser-PEG2-K(QSY7) by human MALT-1 protein; where TAMRA is 6-carboxytetramethylrhodamine, PEG2 is 2-(2-(2-aminoethoxy)ethoxyamide linker, QSY7 is a non-fluorescent quenching dye (Thermo-Fisher catalog #Q10193). The assay was performed by pre-dispensing compounds into 384 well Proxiplates™ (PE 6008289). Human MALT-1 (6 nM) was prepared using the assay buffer (25 mM HEPES pH 7.5, 1 mM ethylenediaminetetraacetic acid, 0.8 M sodium citrate, 0.005% Bovine serum albumin (BSA), 2 mM dithiothreitol (DTT)) and added to the compound plates. The plates were incubated 40 minutes at room temperature. The reaction was carried out by adding the substrate (2 μM) to the plates and incubating for 60 minutes at room temperature. A fluorescence readout was then measured using a PE EnVision® reader (Ex.535/Em.590). […] EC50 is defined as the half maximal effective concentration of compound to inhibit MALT-1 protease activity.

For a further data set, the system named is OCI-LY3 IL6. Put plainly: MALT-1 Cell IL-6 AlphaLISA Assay. Format: cell-based. Conditions: Homo sapiens; OCI-LY3 cells, 48 hours incubation; read-out: OCI-LY3 IL6 48 hour Inhibition EC50. As to the method: The following MALT-1 Cell Interleukin-6 (IL-6) AlphaLISA assay was conducted using a Perkin Elmer® IL-6 AlphaLISA® detection kit (PE AL223). The IL-6 detection assay is a homogeneous immunoassay that detects human IL-6 present in the cell culture medium in the MALT-1 dependent human ABC-DLBCL cell line, OCI-LY3. Compounds were pre-dispensed into Black 384w microtiter plates (Greiner, 781090) from 30 μM to 1.5 nM. Viable OCI-LY3 cells were then seeded on top of compounds at a seeding density of 50,000 cells/mL. Plates were then placed into 37° C. incubators for 48 hours. After 48 hours incubation, 2 μL of cell medium from each well was transferred into white ProxiPlates™ (PE 6008289). A fresh mix of AlphaLISA Acceptor beads (10 μg/mL) and Biotinylated IL-6 Antibody (1 nM) was made in AlphaLISA Immunoassay buffer and added to all wells (4 μL). The plates were incubated for 60 minutes at room temperature. Streptavidin donor beads (40 μg/mL) were prepared using the assay buffer and added to all wells (5 The plates were incubated for 30 minutes at room temperature and read using PE EnVision® reader. Results are shown in Table 3.
(In Alpha technology, singlet oxygen from a donor bead excites a nearby acceptor bead.)

The test system of another data set is CYP3A4 mRNA. Put plainly: CYP3A4 Induction Assay (qPCR, human hepatocytes). Particulars: cryopreserved human hepatocytes (plated), 10 μM compound, mRNA fold over vehicle (0.1% DMSO). Format: in vitro ADME. How it is done:
(§1) CYP induction by compounds of the Examples was evaluated in vitro by determining the expression levels of CYP 3A4 mRNA using the qPCR (quantitative polymerase chain reaction) assay. On day one, cryopreserved human hepatocytes were thawed in prewarmed (37° C.) thawing medium (cryopreserved hepatocyte recovery medium, Gibco™ CM 7000; Thermo Fisher Scientific), centrifuged (1000 g for 10 minutes) and resuspended in plating medium (Gibco™ CM3000—Williams Medium E supplemented with hepatocytes plating supplement pak-serum containing; Thermo Fisher Scientific). Cells were counted by trypan blue exclusion using a hemocytometer and adjusted to a cell density of […]. Thereafter, […] of cell suspension was aliquoted per well in a 96-well plate, resulting in 60,000 cells/well. Plates were shaken in the north-south and east-west direction during plating. Plated cells were incubated at 37° C/5% CO2 in a humidified cell culture incubator for 4-6 hours. During this time, incubation medium (Gibco™ CM4000, cell maintenance supplement pack; Thermo Fisher Scientific) was mixed with Gibco™ Geltrex™ (Thermo Fischer Scientific) at the appropriate GeltrexTM protein concentration. Following recovery, medium was removed from cells and replaced with freshly prepared incubation medium. Cells were incubated overnight in a cell culture incubator (37° C./5% CO2).
(§2) The next day the incubation medium was prepared by combining the hepatocyte maintenance supplement pack with Williams Medium E. The medium was warmed to 37° C. 1000× dimethyl sulfoxide compound stocks of the compounds of the Examples were prepared to the desired concentrations. 10 mM compound stocks in dimethyl sulfoxide were diluted (1 μL to 1 mL CM4000; final concentration=10 μM). Overlay medium was aspirated and […] dose solution added to the desired labeled 96 well plate. Cells were then dosed with compound (10 μM) and prototypical induces at the targeted concentrations either 50 i.tM for omeprazole (Sigma 0104/lotBCBF-2161V) or 10 i.tM for rifampicin (Sigma R3501/lot 011M1159V). A negative control, probenecid, was dosed at 10 i.tM (Sigma P8761/lot 013K0148).
(§3) On day 3, RNA isolation was performed. All surfaces were cleaned using RNase RNAy. Total RNA was isolated using MagMAX Express 96 RNA Isolation System (Life Technologies, AM1830). Briefly, hepatocytes were washed once with 1X PBS (phosphate buffered saline). 145 μL of RNA Lysis Buffer was added to each well and each well was mixed by pipetting several times. Lysate was then transferred to a well of a 96 well Binding Plate. Samples were then mixed with 20 μL magnetic beads coming from the kit. RNA bound to beads was then captured by the magnetic tip manifold and beads were washed with the wash solution. Samples were treated with TURBOTmDNase. After TURBOTmDNase treatment, RNA was rebound to beads and washed with the provided wash buffer an additional two times. Beads are then dried, and RNA was eluted with 50 μL elution buffer. The eluted mRNA was transferred from the wells to RNase-free sealable microtiter plates and stored at -80° C. until use.
(§4) Following mRNA isolation, reverse transcription (RT) reactions were performed using TaqmanTm Reverse Transcription Reagents (ThermoFisher Scientific). RT master mix was prepared by mixing 2.5 μL 10× RT buffer, 5.5 μL 25 mM MgCl2, 5μL deoxyNTP mixture, 1.25 50 mM random hexamers, 0.5 μL 2× RNAse inhibitor, 0.625 μL multiscript RTase (50U/μL) and 0.625 μL water. An aliquot of RT mix (16 μL) and an aliquot of mRNA sample (9 μL) was added to each well of a 96-well plate. The SimpliAmpTM Thermal cycler PCR System VIIA7 from Applied Biosystems was used for reverse transcription under the following conditions: segment 1: 25° C. for 10 minutes; segment 2: 45° C. for 45 minutes; segment 3: 95° C. for 5 minutes; and segment 4: 4° C. hold; with 1 cycle for each segment. […]
On the technique in general: Quantitative PCR measures a nucleic acid by following its amplification.

The subject of a further data set is CYP 3A4 mRNA. Briefly: CYP3A4 Induction Assay (qPCR, human hepatocytes). Format: in vitro ADME. Particulars: 10 μM compound; for CYP3A4 % of positive control (%): relative to rifampicin 10 μM. How it is done: as §1, §2, §3, §4
The next data set deals with male Sprague-Dawley rats. Put plainly: Cardiovascular Assay in anesthetized rats. Format: in vivo. Conditions: rat; for HR (%) / MAP (%) / dP/dt@50 (%): change from vehicle; for Drug (μg/mL SEM): plasma at end of infusion. How it is done: The following cardiovascular assay was conducted using male Sprague-Dawley rats that were anesthetized with Inactin (thiobutabarbital), instrumented (catheterized both femoral artery and vein; catheterize left ventricular) and allowed to stabilize. Following a 30-minute baseline period, each compound was infused at low, medium, and high doses/30 minutes. Plasma samples were taken at the end of each dose infusion. If, at any point, the mean arterial pressure (MAP) of an animal decreased below 70 mmHg, the infusion was immediately stopped, a final blood sample was taken, and hemodynamic data for that animal was removed from the group average for all subsequent time points. A 15% change from vehicle for MAP or heart rate (HR), respectively, is considered biologically relevant. A 20% change from vehicle for dP/dt@50 is considered biologically relevant.

Sequence of human MALT-1 protein (Q9UDY8 whole entry): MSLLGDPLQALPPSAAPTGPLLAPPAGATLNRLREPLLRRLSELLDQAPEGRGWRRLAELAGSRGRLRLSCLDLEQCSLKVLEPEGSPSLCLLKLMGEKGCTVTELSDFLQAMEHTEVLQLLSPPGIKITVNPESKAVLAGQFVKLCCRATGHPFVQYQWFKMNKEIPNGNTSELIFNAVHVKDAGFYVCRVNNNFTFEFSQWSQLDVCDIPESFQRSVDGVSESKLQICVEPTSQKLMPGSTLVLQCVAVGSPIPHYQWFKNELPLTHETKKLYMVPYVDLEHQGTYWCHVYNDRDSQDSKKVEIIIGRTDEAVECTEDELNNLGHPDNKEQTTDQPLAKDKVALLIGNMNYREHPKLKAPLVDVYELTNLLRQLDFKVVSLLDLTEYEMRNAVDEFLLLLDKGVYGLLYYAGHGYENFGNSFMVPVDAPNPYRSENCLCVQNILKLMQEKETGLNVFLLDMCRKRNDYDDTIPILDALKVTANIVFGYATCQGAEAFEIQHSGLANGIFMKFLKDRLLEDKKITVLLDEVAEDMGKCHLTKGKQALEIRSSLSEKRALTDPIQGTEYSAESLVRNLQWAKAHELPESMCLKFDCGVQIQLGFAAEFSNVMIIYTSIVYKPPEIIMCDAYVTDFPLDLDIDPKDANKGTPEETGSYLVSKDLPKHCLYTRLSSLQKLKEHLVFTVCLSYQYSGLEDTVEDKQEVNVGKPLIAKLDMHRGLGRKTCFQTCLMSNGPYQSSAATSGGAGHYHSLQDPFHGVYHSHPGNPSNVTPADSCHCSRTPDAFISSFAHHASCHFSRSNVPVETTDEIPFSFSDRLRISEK

What is called EC50 is the midpoint of the concentration-response curve. In general, fold induction refers to the ratio of treated to control signal. High values mean a strong induction, low ones a weak induction. For the compound `CO[C@@H](C)c1c(Nc2ccc([C@H](N(C)C(=O)C3CCN(C(=O)CCO)CC3)C(F)(F)F)cc2)cnc2sc(C)nc12` [Example 22, 1-(3-hydroxypropanoyl)-N-methyl-N-{(1S)-2,2,2-trifluoro-1-[4-({7-[(1S)-1-methoxyethyl]-2-methyl[1,3]thiazolo[5,4-b]pyridin-6-yl}amino)phenyl]ethyl}piperidine-4-carboxamide], the EC50 at human MALT-1 protein was 228 nM; with OCI-LY3 IL6, 380 nM. The compound also returned a fold induction at 1 day, 10 µM in the data set with CYP3A4 mRNA of 1.09. Further, the “CYP3A4 % of positive control (%)” value in the data set on CYP 3A4 mRNA is “(1.16) %”.
`CO[C@@H](c1c(Nc2ccc([C@@H](C(F)F)N(C)C(=O)C3CCS(=O)(=O)CC3)cc2)cnc2sc(C)nc12)C(F)F` [Example 13, N-{(1S)-1-[4-({7-[(1S)-2,2-difluoro-1-methoxyethyl]-2-methyl[1,3]thiazolo[5,4-b]pyridin-6-yl}amino)phenyl]-2,2-difluoroethyl}-N-methyl-1,1-dioxo-1λ^6-thiane-4-carboxamide]: the concentration for a half-maximal effect (EC50) on human MALT-1 protein was determined as 193 nM; with OCI-LY3 IL6, 420 nM. In addition, the fold induction at 1 day, 10 µM in the data set on CYP3A4 mRNA was found to be 3.19. The “CYP3A4 % of positive control (%)” value in the data set with CYP 3A4 mRNA was “(34.8) %”.
The corresponding values for `CO[C@H](c1c(Nc2ccc([C@@H](C(F)F)N(C)C(=O)C3CCN(C(=O)CO)CC3)cc2)cnc2sc(C)nc12)C(F)F` [Example 31, N-{(1S)-1-[4-({7-[(1R)-2,2-difluoro-1-methoxyethyl]-2-methyl[1,3]thiazolo[5,4-b]pyridin-6-yl}amino)phenyl]-2,2-difluoroethyl}-1-(hydroxyacetyl)-N-methylpiperidine-4-carboxamide] are 82 nM, 440 nM, 1.37 and “(4.87) %”.
As for `CO[C@@H](C)c1c(Nc2ccc([C@@H](C(F)F)N(C)C(=O)C3CCN(C(=O)CO)CC3)cc2)cnc2sc(C)nc12` [Example 28, N-{(1S)-2,2-difluoro-1-[4-({7-[(1S)-1-methoxyethyl]-2-methyl[1,3]thiazolo[5,4-b]pyridin-6-yl}amino)phenyl]ethyl}-1-(hydroxyacetyl)-N-methylpiperidine-4-carboxamide], the 50% effective concentration (EC50) is 138 nM on human MALT-1 protein and 420 nM with OCI-LY3 IL6. Besides, the fold induction at 1 day, 10 µM in the data set on CYP3A4 mRNA is 2.24. For the same compound, in the data set on CYP 3A4 mRNA, the “CYP3A4 % of positive control (%)” value is given as “(15.1) %”.
For `CO[C@@H](C)c1c(Nc2ccc([C@H](N(C)C(=O)C3CCS(=O)(=O)CC3)C(F)(F)F)cc2F)cnc2sc(C)nc12` (single isomer, unassigned) [Example 10] the same measures were 198 nM, 230 nM, 8.24 and “(84.8) %”.
On to `CO[C@@H](C)c1c(Nc2ccc([C@H](N(C)C(=O)C3CCS(=O)(=O)CC3)C(F)(F)F)cc2)cnc2cc(Cl)nn12` [Comparative Example A, N-{(1S)-1-[4-({2-chloro-7-[(1 S)-1-methoxyethyl]pyrazolo [1,5-a]pyrimidin-6-yl}amino)phenyl]-2,2,2-trifluoroethyl}-N-methyl-1,1-dioxo-1λ^6-thiane-4-carboxamide, reference compound], for which, in the data set on male Sprague-Dawley rats (dose 3 mg/kg), the “HR (%)” value is reported as −7%, the “MAP (%)” value is −10%, the “dP/dt@50 (%)” value is given as −4% and the “Drug (μg/mL SEM)” value was determined as 1.45 ± 0.06 µg/mL. In the data set on male Sprague-Dawley rats (dose 10 mg/kg), the “HR (%)” value is recorded as −11%, the “MAP (%)” value is recorded as −14%, the “dP/dt@50 (%)” value was −7% and the “Drug (μg/mL SEM)” value stood at 5.15 ± 0.32 µg/mL. Moreover, in the data set on male Sprague-Dawley rats (dose 30 mg/kg), the “HR (%)” value was −18%, the “MAP (%)” value was −22%, the “dP/dt@50 (%)” value is −6% and the “Drug (μg/mL SEM)” value was found to be 12.91 ± 1.71 µg/mL.
For the compound `Cc1nc2c(C(C)C(F)F)c(Nc3ccc([C@H](N(C)C(=O)C4CCS(=O)(=O)CC4)C(F)(F)F)cc3)cnc2s1` (stereo partly drawn) [Example 16, N-R[(1S)-1-(4-{ [7-(1,1-difluoropropan-2-yl)-2-methyl[1,3]thiazolo[5,4-b]pyridin-6-yl]amino}phenyl)-2,2,2-trifluoroethyl]-N-methyl-1,1-dioxo-1λ^6-thiane-4-carboxamide], the half-maximal effective concentration (EC50) turned out to be 106 nM at human MALT-1 protein and 470 nM in the data set with OCI-LY3 IL6.
The corresponding values for `CO[C@H](c1c(Nc2ccc([C@H](N(C)C(=O)C3CCS(=O)(=O)CC3)C(F)(F)F)cc2F)cnc2sc(C)nc12)C(F)F` (single isomer, unassigned) [Example 17] are 92 nM and 580 nM.
For the compound `CO[C@@H](C)c1c(NC(=O)Nc2cnc(-n3nccn3)c(C(F)(F)F)c2)cnc2sc(C)nc12` [Comparative Example B, reference compound], in the data set on CYP 3A4 mRNA (mRNA fold over vehicle (0.1% DMSO)), the “CYP3A4 Fold induction” value is recorded as 2.32. Further, the “CYP3A4 % of positive control (%)” value with CYP 3A4 mRNA is on record as “(25.3) %”.
